Data: article PMC12814185, “Receptor-Mediated Shuttling of a D‑Amino Acid Peptide Achieves High Nanomolar Cytosolic Concentrations” (Journal of the American Chemical Society, 2025)
Like-named read-outs stand apart in the source and are kept apart here. Bridges are numbered along the chain shown (N, C = ends). Roman numbers before positions name the chains, in order. Triazole bridges read from a SMILES are 1,4-linked. Where no end group is shown, it is not given here. Side-chain parts run from the residue outwards. [ ]: non-standard residue; d: D form. The star is where a group is joined. X1 = CN1C(=CC=CC=CC2=[N+](CCCCCC(=O)*)c3ccc(S(=O)(=O)[O-])cc3C2(C)C)C(C)(C)c2cc(S(=O)(=O)O)ccc21; Lys(N3) = [N-]=[N+]=NCCCC[C@H](N)C(=O)O; Cit = NC(=O)NCCC[C@H](N)C(=O)O; d(hCys) = N[C@H](CCS)C(=O)O; PEG3 = NCCOCCOCCOCCC(=O)O; Pra = C#CC[C@H](N)C(=O)O

Columns and labels:
CMKLR1 = molecular target: T1, CMKLR1 (Homo sapiens, UniProt Q99788); assay: Ca2+ flux assay in COS-7_CMKLR1-eYFP_Δ6Gαqi4myr cells; assay type: cell-based; conditions: maximum signal over baseline normalized to peptide 1, at least two independent experiments in duplicate
T1 construct: expressed in transfected cells; host or cells: COS-7 (stably transfected, CMKLR1-eYFP + Δ6Gαqi4myr)
T1 sequence (Q99788 1-373): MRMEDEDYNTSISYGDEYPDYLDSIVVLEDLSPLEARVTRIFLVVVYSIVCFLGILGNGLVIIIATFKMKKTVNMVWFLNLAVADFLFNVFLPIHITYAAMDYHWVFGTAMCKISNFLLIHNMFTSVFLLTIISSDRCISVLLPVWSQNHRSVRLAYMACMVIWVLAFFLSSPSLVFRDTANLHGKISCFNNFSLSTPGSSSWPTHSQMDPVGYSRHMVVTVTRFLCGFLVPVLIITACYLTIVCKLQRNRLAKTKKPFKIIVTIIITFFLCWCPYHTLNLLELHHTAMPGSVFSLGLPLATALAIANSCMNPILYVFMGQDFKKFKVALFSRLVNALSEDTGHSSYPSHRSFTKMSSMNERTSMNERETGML
Description: (C) Activity of the cyclic chemerin-9 (cC9) derivatives at CMKLR1 tested in a Ca^2+ flux assay. Data points represent the mean ± SEM of at least two independent experiments performed in duplicate.
Calcium flux assay was performed with cells expressing CMKLR1 and the chimeric G protein Δ6Gαqi4myr.
The stably transfected COS-7_CMKLR1-eYFP_ Δ6Gαqi4myr cells were seeded at 25,000 cells per well into poly-ᴅ-lysine-coated 96-well plates (black µCLEAR, Greiner). The next day, cells were incubated with 2.3 µM Fluo-2-AM (Abcam) and 0.06% (v/v) Pluronic-F127 (Sigma) in assay buffer (2.5 mM probenecid (Sigma), 20 mM 4-(2-hydroxyethyl)-1-piperazineethanesulfonic acid (HEPES, Sigma) in Hanks' Balanced Salt Solution (HBSS, Biowest), pH 7.5) for 1 h. This solution was replaced by assay buffer, and basal Ca2+ signal (λex = 485 nm, λem = 525 nm) was measured for 20 s with a Flexstation 3 plate reader (Molecular Devices). Peptide dilutions were added, and the Ca2+ response was measured for 40 s. The maximum signal over baseline was calculated and normalized to peptide 1 (N3-cC9). Non-linear regression was performed using Prism 10 (GraphPad). Experiments were performed in technical duplicates and at least

[1] = tested on: HEK293_CMKLR1-eYFP, HMEC-1, MDA-MB-231 and THP-1 cells; assay: Quantification of total cellular peptide uptake in cell lysate; assay type: cell-based; conditions: 1 µM peptide, 72 h, fluorescence in lysate, all cell lines; performed thrice
Description: page 7: Quantification of total cellular peptide uptake of different cell lines MDA-MB-231 cells and stably transfected HEK293_CMKLR1-eYFP cells were seeded at 165,000 cells per well and HMEC-1 cells at 55,000 cells per well into poly-ᴅ-lysine coated 12-well plates in their respective cell culture medium. […] the cells and incubated for 72 h. Cells were then washed with PBS and detached with trypsin/EDTA. […] Suspended cells were washed thrice with Fluorobrite DMEMTM and collected by centrifugation at 500 g for 5 min after each step. Finally, cells were resuspended in […] Fluorobrite DMEMTM and cell density was determined with an automated cell counter (Cell Drop, DeNovix). Cell suspensions were then lysed by ultrasonic homogenization (U[…], Hielscher) for 2 × 10 s on ice to prevent self-quenching of Cy5 due to high local concentrations in vesicles. […] Quantification of receptor-mediated uptake in CMKLR1-expressing cell lines. (A) Cell-surface enzyme-linked immunosorbent assay (ELISA) for the quantification of CMKLR1 expression of different cell lines. […] For quantification, cells were detached, counted, lysed by ultrasonic homogenization, and fluorescence was measured in the lysate. Total peptide uptake per cell was calculated from a dilution series of Cy5-labeled peptide with known concentration. […]

**Q.** Which results are given for “I: GSVSHHHHHHGGHHHH[PEG3][dK]([PEG3-X1])[dD][dW][dW][dP][dL][dA][dF][dE][dA][dL][dL][dR]GEV[Cit][PEG3][Pra]-NH2 / II: Ac-[Lys(N3)]YFP[d(hCys)]QFAFC-OH (triazole I:36-II:1; disulfide II:5-II:10) [3Cy]”?
**A.** EC50 (CMKLR1; read-out: EC50): 220 nM; EC50 (CMKLR1; read-out: pEC50 ± SEM (converted)): 219 nM; total peptide uptake per cell [1]: uptake slightly higher than that of 2Cy
